From patent publication US3956234A, “Inhibiting ozone deterioration of rubbers” (Sumitomo Chemical Company, Limited, priority 1973, dated 1976)

What was measured:
[1] = Static ozone deterioration test, Example 3 chloroprene rubber compound; conditions: Table 6, static, 20 % elongation, 1.5 parts added, ozone 90 ± 5 pphm, 50 ± 10°C
Protocol: (§1) The static and dynamic ozone deterioration tests were made on the test pieces on the Ozone Weather-O-Meter produced by Toyo Rika Co. Ltd. In the static test, the Dumbbel No. 2 test pieces were kept at a 20 % elongation in the stream of ozone during the test, and during the latter test, the test pieces were given repeated elongation of from 0 up to 20 % once a second in the stream of ozone.
(§2) be 50 ± 10°C., and the time required for the generation of visually observable cracks on the surface of the vulcanized rubber was taken as a crack-generating time which was used as the measure of ozone-resistance. […]
(§3) A blank test was also carried out at the same time for comparison, using the rubber compound alone above mentioned.

[2] = Static ozone deterioration test, Example 1 natural rubber compound (pale crape No. 1); conditions: Table 2, static, 20 % elongation, 2 parts added, ozone 35 ± 5 pphm, 50 ± 10°C
Protocol: (§4) Two parts of each of the present compounds in Table 1 (sample numbers A to H) and, as a counterpart, Antiozonant AFD (a registered trademark of Bayer Co. Ltd.) represented by sample number I were individually mixed thoroughly with the following rubber compound,
(§5) and each resulting mixture was well milled on a 2-roll mill of 10 inches in diameter and then vulcanized thereon at 140°C. for 20 minutes. A blank test was also carried out at the same time for comparison, using the rubber compound alone above mentioned.
as §1
(§6) The tests were carried out under the condition that the ozone concentration be 35 ± 5 pphm and the test temperature be 50 ± 10°C., and the time required for the generation of visually observable cracks on the surface of the vulcanized rubber was taken as a crack-generating time which was used as the measure of ozone-resistance.

[3] = Dynamic ozone deterioration test, Example 1 natural rubber compound (pale crape No. 1); conditions: Table 3, dynamic, repeated elongation 0 up to 20 % once a second, 2 parts added, ozone 35 ± 5 pphm, 50 ± 10°C
Protocol: as §4, §5, §1, §6

[4] = Dynamic ozone deterioration test, Example 2 SBR compound; conditions: Table 5, dynamic, repeated elongation 0 up to 20 %, 2 parts added, ozone 35 ± 5 pphm, 50 ± 10°C
Protocol: as §1, §6
(§7) Two parts of each of the present compounds in Table 1 (sample numbers A to H) and, as a counterpart, Antiozonant AFD represented by sample number I were individually mixed thoroughly with the following rubber compound,
(§8) and each resulting mixture was well milled on a 2-roll mill of 10 inches in diameter and then vulcanized thereon at 150°C. for 30 minutes. A blank test was also carried out at the same time for comparison, using the rubber compound alone above mentioned.

[5] = Dynamic ozone deterioration test, Example 3 chloroprene rubber compound; conditions: Table 7, dynamic, repeated elongation 0 up to 20 %, 1.5 parts added, ozone 90 ± 5 pphm, 50 ± 10°C
Protocol: as §1, §2, §3

[6] = Static ozone deterioration test, Example 2 SBR compound; conditions: Table 4, static, 20 % elongation, 2 parts added, ozone 35 ± 5 pphm, 50 ± 10°C
Protocol: as §1, §6, §7, §8

SMILES	Crack-generating time [1]	Crack-generating time [2]	Crack-generating time [3]	Crack-generating time [4]	Crack-generating time [5]	Crack-generating time [6]
CC(C)SCCC#N [B]	175 h	15 h	16 h	14 h	185 h	11 h
CC(C#N)CSCC(C)C#N (stereo not drawn) [C]	190 h	18 h	20 h	18 h	210 h	13 h
N#CCCCSCCCC#N [D]	195 h	19 h	22 h	19 h	215 h	15 h
CCC(CCCC#N)CSCC(CC)CCCC#N (stereo not drawn) [E]	180 h	16 h	16 h	15 h	190 h	11 h
CCCCCCCCCCCCCCCCCCSCCC#N [F]	170 h	14 h	15 h	13 h	180 h	10 h
N#CCCSCCC#N [Sample A]	200 h	20 h	24 h	21 h	220 h	16 h
